Experimental data reported in ChEMBL document CHEMBL1201862, “PubChem BioAssay data set” (2004).
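Dose response: 5 concentrations. Exposure: 48 h. Format: 96-well plates. Endpoint: linear interpolation; highest concentration if not reached. GI50 is the concentration that inhibits growth by half.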 The source made the active and inactive calls. Cut-off read from the data, not from the text of the source: active = GI50 up to about 1.1 µM and inactive = higher.

Assays:
Assay in all cases: growth of human tumour cells (NCI), 48 h
RXF 393 = test system: RXF 393
SF-539 = test system: SF-539
OVCAR-3 = test system: OVCAR-3
SK-MEL-28 = test system: SK-MEL-28
SNB-19 = test system: SNB-19
HCC 2998 = test system: HCC 2998
MOLT-4 = test system: MOLT-4
UACC-62 = test system: UACC-62
SW-620 = test system: SW-620
CCRF-CEM = test system: CCRF-CEM
SF-268 = test system: SF-268
NCI-H23 = test system: NCI-H23
HOP-62 = test system: HOP-62
CAKI-1 = test system: CAKI-1
SNB-75 = test system: SNB-75
SR = test system: SR
UO-31 = test system: UO-31
PC-3 = test system: PC-3
NCI/ADR-RES = test system: NCI/ADR-RES
DU-145 = test system: DU-145

Measured: GI50

N#C/C=C1\C=CC(O)C(O)C1OC1OC(CO)C(O)C(O)C1O (stereo not given)
inactive: RXF 393 > 100 µM | SF-539 > 100 µM | OVCAR-3 > 100 µM | SK-MEL-28 > 100 µM | SNB-19 > 100 µM | HCC 2998 > 100 µM | MOLT-4 > 100 µM | UACC-62 > 100 µM | SW-620 > 100 µM | CCRF-CEM > 100 µM | SF-268 > 100 µM | NCI-H23 > 100 µM | HOP-62 > 100 µM | CAKI-1 > 100 µM | SNB-75 > 100 µM | SR > 10 µM | UO-31 > 100 µM | PC-3 > 100 µM | NCI/ADR-RES > 100 µM | DU-145 > 100 µM

CC(=O)Nc1ccc(/C=C2/NC(=S)N(/C=C3\C(=O)Oc4ccccc4C3=O)C2=O)cc1
inactive: RXF 393 > 100 µM | SF-539 96.2 µM | OVCAR-3 24 µM | SK-MEL-28 85.7 µM | SNB-19 > 100 µM | HCC 2998 43.2 µM | MOLT-4 48 µM | UACC-62 77.3 µM | SW-620 91 µM | CCRF-CEM 45.1 µM | SF-268 29.4 µM | NCI-H23 67.3 µM | HOP-62 48 µM | CAKI-1 49.5 µM | SNB-75 15.8 µM | SR 39.3 µM | UO-31 39.5 µM | PC-3 54.5 µM | NCI/ADR-RES 33.7 µM | DU-145 94 µM

CCCCC(=C=C1CCCCC1O)C1CCCN1C(=O)OC(C)(C)C (stereo not given)
inactive: RXF 393 13 µM | SF-539 18.7 µM | OVCAR-3 15.7 µM | SK-MEL-28 15.5 µM | SNB-19 16.4 µM | HCC 2998 22.1 µM | MOLT-4 15.8 µM | UACC-62 11.2 µM | SW-620 18.3 µM | CCRF-CEM 17.6 µM | SF-268 17.3 µM | NCI-H23 16 µM | HOP-62 17 µM | CAKI-1 11.5 µM | SNB-75 13.8 µM | SR 23.6 µM | UO-31 21.3 µM | PC-3 16.1 µM | NCI/ADR-RES 14.3 µM | DU-145 17.5 µM

C[C@H]1[C@H](C)CC[C@]2(C(=O)OC3OC(CO)C(O)C(O)C3O)CC[C@]3(C)C(=CC[C@@H]4[C@@]5(C)C[C@H]6OC(=O)c7cc(O)c(O)c(O)c7-c7c(cc(O)c(O)c7O)C(=O)O[C@@H]6C(CO)(CO)[C@@H]5CC[C@]43C)[C@H]12 (stereo not given in full)
inactive: RXF 393 > 100 µM | SF-539 > 100 µM | OVCAR-3 > 43 µM | SK-MEL-28 > 100 µM | SNB-19 43.7 µM | HCC 2998 82.4 µM | MOLT-4 > 41.5 µM | UACC-62 99.3 µM | SW-620 37.6 µM | CCRF-CEM 24.5 µM | SF-268 > 69.8 µM | NCI-H23 > 100 µM | HOP-62 > 100 µM | CAKI-1 19.5 µM | SNB-75 > 100 µM | SR 27 µM | UO-31 58.1 µM | PC-3 > 82.6 µM | NCI/ADR-RES > 100 µM | DU-145 > 100 µM
